Reference: US9249147B2, “Tyrosine kinase inhibitors” (CHEMBRIDGE CORPORATION, priority 2008, dated 2016)
pIC50: −log10 of the molar value. “Also recorded” adds a separate entry of the source.

Key:
[1] = Liver microsome stability, Mouse LM-P1 / MLM; type: in vitro ADME; conditions: Table 3A, mouse liver microsomes; read-out: CL MLM
[2] = tested on: SUDHL-1; assay: Cellular IC50, SUDHL-1; type: cell-based; conditions: Homo sapiens, SU-DHL-1; Table 3A
Description: (§1) Cell proliferation inhibition assays were run for compound (II) with the five target NPM-ALK-dependent ALCL cell lines (Karpas 299, SuDHL-1, JB6, SupM2, UConn) and 12 unrelated cell lines (HEK293, CHO-K1, MCF7, HepG2, H292, H520, H1581, H596, H522, CHA-GO-K1, UMC-11, SK-MES1). […] The pronounced target cell-killing effect is also observed (molecular mechanisms to be determined).

[3] = tested on: U937; assay: Cellular IC50, U937; type: cell-based; conditions: Homo sapiens, U-937; Table 3A
[4] = Liver microsome stability, Human LM-P1 / HLM; type: in vitro ADME; conditions: Table 3A, human liver microsomes; read-out: CL HLM
Description: Metabolic stability of compound (II) (labeled as CRL241 below) in vitro has been tested in a standard in vitro microsomal stability assay in human microsomes (Cerep Study 13170).

[5] = target: RET (Homo sapiens, UniProt P07949); assay: RET cell free kinase assay (Table 3A); type: biochemical
[6] = target: ROS (Homo sapiens, UniProt P08922); assay: ROS cell free kinase assay (Table 3A); type: biochemical
[7] = tested on: Karpas299; assay: Cell proliferation inhibition, ALCL line Karpas299; type: cell-based; conditions: Homo sapiens, KARPAS-299; Table 3A; read-out: Cellular IC50 K-299
Description: The IL-3-dependent lymphoid cell line BaF3 or BaF3 rendered IL-3-independent by engineered expression of NPM-ALK were used in parallel to test each candidate inhibitor. Control wells contained DMSO solvent without test compound. Specific inhibition of ALK signaling is indicated in the assay by impairment of NPM-ALK-expressing BaF3 cell growth without alterations in the growth of parental BaF3. This colorimetric assay of cell proliferation and viability is based upon reduction of the yellow monotetrazolium salt XTT to a water-soluble orange formazan dye, a reaction catalyzed by mitochondrial dehydrogenases in living cells only (Cell Proliferation Kit II, Cat. #1 465 015, Roche Biochemicals). In addition to testing compounds for their ability to impair the growth of BaF3 cells engineered to express NPM-ALK, the NPM-ALK-positive human lymphoma cell line Karpas-299 (Deutsche Sammlung von Mikroorganismen and Zellkulturen GmbH (DSMZ) no. ACC 31), the human BCR-ABL-positive chronic myeloid leukemia cell line K562 (American Type Culture Collection (ATCC) no. CCL-243), and the human T-cell leukemia line Jurkat (DSMZ no. ACC 282) were tested in these assays.
Each compound stock in 100% DMSO was first diluted using 8% DMSO/culture medium to produce a working stock of 250 μM compound. This working stock was then used to perform serial 1:1 dilutions (i.e., 125 μM, 62.5 μM, 31.25 μM, 15.625 μM, 7.8125 μM, and 3.90625 μM) using DMSO-free culture medium. Twenty (20) μL of each of these dilutions was then added to the cells (2×10^4 cells in 80 μL culture medium per 96-well) to obtain the final test compound concentrations (i.e., 25 μM, 12.5 μM, 6.25 μM, 3.125 μM, 1.5625 μM, and 0.78125 μM).
as §1

[8] = target: TRKA (Homo sapiens, UniProt P04629); assay: TRKA kinase assay; type: biochemical; design: 6×His- or GST-tagged kinase domain fragments of the corresponding RTKs expressed in baculovirus system; host or cells: baculovirus system; conditions: Table 3A; read-out: Cell Free IC50 TRKA
[9] = target: ALK (Homo sapiens, UniProt Q9UM73); assay: ALK kinase assay (Kinase-Glo / AlphaScreen, purified NPM-ALK); type: biochemical; design: fused to the complete intracytoplasmic portion of ALK containing the functional tyrosine kinase domain; 6xHis; made in house; host or cells: insect cells; the other entry of the earlier key: NPM1 (P06748, Nucleophosmin); conditions: Table 3A; read-out: Cell Free IC50 ALK;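 further: recombinant baculovirus-expressed ALK kinase domain, activity read either as leftover ATP by Kinase-Glo luminescence or as poly(Glu-Tyr) phosphorylation by anti-phosphotyrosine AlphaScreen proximity signal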
[10] = tested on: A549 cells; assay: Prolonged inflammation (PMA induced MMP-1 or IL-8) in A549 cells; type: cell-based; conditions: FIG. 17
Description: Panel 3: All the above were done on the transcriptional level (i.e., MMP-1, IL-8, etc. expressions). For IL-8, this was verified on the translational (i.e., protein expression) level as well.

[11] = tested on: ALCL cell lines; assay: Proliferation of NPM-ALK-dependent ALCL / ALK+ T-cell lymphoma cell lines; type: cell-based; conditions: FIGS. 5, 6
Description: as §1

[12] = tested on: IL-8 in A549 cells; assay: PMA-induced IL-8 levels in A549 cells, with or without RU-486; type: cell-based; conditions: 4 hr treatments
[13] = tested on: A549 cells; assay: TNFα-induced acute inflammation in A549 cells; type: cell-based; conditions: 100 nM Dex or 1 μM compound (VI)
[14] = tested on: PC12 cells; assay: NGF-stimulated neurite outgrowth in PC12 cells; type: cell-based; conditions: 100 nM compound, NGF 100 ng/ml, 6 days
Protocol: In chronic pain states, neurons form outgrowths which sensitize them to pain. NGF-induced neurite outgrowth was used as an assay for TrkA-dependent chronic/neuropathic pain activity.
Methods: PC12 cells were grown in 2% FBS and treated with or without NGF (100 ng/ml) 30 min before adding of vehicle or TRKA compounds for 6 days, changing media on day 3. On day 6 cells were fixed and stained for SRB before photographed for neurite outgrowth.

[15] = tested on: MMP-1 in A549 cells; assay: PMA induced MMP-1 production in A549 cells; type: cell-based; conditions: one hour treatment
[16] = tested on: MMP-1 in A549 cells; assay: Combination of Trk inhibitor and glucocorticoid on MMP-1 expression in A549 cells; type: cell-based; conditions: sub-optimal concentrations
[17] = tested on: PC-12 cells; assay: PC-12 cell cytotoxicity; type: cell-based; conditions: FIG. 13
[18] = tested on: FKBP51 (GR pathway); assay: GR specific anti-inflammatory marker FKBP51 in A549 cells; type: cell-based

RET, sequence (P07949 29-1114): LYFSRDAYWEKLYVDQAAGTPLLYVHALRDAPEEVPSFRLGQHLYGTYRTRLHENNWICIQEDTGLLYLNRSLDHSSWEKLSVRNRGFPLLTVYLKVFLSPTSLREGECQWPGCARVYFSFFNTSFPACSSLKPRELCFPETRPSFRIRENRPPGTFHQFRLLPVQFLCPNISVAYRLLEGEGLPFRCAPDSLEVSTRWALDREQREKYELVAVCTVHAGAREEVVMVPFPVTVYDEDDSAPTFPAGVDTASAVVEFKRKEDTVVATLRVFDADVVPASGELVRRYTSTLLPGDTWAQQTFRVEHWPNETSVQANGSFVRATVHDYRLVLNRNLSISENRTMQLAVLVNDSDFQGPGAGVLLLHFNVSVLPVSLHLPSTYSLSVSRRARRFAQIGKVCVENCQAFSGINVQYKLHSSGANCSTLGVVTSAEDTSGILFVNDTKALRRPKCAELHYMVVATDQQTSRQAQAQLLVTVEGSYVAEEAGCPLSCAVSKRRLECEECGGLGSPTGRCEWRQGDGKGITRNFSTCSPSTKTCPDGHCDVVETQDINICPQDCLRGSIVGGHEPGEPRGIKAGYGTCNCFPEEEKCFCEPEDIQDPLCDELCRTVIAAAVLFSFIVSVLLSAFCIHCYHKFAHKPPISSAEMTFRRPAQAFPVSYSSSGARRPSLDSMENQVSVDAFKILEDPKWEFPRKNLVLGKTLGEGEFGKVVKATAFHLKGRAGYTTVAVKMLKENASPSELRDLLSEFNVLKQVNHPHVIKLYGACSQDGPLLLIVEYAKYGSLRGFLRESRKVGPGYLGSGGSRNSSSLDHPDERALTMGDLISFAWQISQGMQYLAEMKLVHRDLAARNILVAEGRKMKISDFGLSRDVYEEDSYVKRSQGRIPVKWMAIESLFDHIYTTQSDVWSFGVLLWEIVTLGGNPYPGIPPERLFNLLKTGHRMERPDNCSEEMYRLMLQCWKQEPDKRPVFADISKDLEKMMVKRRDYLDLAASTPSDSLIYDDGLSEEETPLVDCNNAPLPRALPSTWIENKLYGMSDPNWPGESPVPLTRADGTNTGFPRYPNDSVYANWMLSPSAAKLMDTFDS
ROS, sequence (P08922 28-2347): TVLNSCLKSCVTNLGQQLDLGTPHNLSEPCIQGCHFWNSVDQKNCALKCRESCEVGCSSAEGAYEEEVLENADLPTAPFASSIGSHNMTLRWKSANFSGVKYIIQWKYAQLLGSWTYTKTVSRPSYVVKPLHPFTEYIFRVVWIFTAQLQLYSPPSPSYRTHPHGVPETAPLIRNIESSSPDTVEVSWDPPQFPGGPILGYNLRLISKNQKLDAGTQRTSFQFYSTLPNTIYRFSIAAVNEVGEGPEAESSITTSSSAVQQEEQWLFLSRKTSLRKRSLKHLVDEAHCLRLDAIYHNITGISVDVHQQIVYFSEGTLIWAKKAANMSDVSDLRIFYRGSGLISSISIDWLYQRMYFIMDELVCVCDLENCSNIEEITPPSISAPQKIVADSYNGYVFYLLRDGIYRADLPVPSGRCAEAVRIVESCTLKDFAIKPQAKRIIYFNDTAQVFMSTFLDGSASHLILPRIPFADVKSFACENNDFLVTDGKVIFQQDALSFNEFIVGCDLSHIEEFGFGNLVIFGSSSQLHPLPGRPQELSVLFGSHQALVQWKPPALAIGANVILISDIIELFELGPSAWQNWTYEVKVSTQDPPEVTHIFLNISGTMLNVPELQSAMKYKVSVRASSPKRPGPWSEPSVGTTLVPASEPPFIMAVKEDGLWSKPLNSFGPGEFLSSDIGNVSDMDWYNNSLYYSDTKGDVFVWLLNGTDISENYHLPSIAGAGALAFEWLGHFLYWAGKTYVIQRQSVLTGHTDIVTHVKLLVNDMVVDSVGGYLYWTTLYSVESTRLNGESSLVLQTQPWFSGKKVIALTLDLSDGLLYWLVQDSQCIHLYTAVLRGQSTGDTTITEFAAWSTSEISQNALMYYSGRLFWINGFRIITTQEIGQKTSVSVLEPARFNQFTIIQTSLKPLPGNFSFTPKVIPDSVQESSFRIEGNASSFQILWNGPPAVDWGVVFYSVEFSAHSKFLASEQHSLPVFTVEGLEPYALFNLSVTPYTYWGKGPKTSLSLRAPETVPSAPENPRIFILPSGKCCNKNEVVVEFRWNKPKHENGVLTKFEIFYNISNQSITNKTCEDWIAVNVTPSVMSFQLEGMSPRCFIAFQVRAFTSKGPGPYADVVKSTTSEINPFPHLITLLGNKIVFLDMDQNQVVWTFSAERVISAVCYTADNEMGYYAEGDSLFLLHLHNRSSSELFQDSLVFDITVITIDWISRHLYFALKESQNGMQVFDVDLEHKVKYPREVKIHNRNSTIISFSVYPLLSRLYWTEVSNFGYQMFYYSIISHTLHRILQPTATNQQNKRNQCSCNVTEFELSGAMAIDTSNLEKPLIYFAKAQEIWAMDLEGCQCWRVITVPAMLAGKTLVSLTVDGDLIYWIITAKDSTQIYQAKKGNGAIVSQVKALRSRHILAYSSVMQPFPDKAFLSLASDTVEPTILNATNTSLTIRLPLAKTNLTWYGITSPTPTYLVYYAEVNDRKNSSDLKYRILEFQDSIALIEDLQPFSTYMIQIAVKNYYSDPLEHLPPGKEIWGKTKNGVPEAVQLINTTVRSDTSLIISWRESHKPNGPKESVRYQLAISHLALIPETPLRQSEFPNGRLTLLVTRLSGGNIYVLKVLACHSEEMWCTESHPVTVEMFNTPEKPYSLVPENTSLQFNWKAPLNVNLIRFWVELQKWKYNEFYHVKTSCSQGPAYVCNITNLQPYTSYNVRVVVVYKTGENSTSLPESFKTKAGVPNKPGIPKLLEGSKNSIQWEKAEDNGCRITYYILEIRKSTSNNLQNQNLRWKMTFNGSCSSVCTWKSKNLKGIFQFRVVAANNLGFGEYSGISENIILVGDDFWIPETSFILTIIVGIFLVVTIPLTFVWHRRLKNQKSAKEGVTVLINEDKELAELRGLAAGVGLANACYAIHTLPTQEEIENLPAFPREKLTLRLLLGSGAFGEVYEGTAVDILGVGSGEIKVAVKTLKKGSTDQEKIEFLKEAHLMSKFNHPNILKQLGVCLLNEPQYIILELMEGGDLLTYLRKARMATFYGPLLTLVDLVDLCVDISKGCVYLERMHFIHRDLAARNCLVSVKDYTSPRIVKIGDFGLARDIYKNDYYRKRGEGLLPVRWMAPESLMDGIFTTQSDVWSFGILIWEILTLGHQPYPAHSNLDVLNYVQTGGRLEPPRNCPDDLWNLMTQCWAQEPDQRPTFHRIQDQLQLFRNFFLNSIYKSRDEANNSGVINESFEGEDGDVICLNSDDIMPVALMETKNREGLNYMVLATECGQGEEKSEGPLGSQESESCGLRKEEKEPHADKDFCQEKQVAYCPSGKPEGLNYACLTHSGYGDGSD
ALK, sequence (Q9UM73 with tags, fused parts or gaps): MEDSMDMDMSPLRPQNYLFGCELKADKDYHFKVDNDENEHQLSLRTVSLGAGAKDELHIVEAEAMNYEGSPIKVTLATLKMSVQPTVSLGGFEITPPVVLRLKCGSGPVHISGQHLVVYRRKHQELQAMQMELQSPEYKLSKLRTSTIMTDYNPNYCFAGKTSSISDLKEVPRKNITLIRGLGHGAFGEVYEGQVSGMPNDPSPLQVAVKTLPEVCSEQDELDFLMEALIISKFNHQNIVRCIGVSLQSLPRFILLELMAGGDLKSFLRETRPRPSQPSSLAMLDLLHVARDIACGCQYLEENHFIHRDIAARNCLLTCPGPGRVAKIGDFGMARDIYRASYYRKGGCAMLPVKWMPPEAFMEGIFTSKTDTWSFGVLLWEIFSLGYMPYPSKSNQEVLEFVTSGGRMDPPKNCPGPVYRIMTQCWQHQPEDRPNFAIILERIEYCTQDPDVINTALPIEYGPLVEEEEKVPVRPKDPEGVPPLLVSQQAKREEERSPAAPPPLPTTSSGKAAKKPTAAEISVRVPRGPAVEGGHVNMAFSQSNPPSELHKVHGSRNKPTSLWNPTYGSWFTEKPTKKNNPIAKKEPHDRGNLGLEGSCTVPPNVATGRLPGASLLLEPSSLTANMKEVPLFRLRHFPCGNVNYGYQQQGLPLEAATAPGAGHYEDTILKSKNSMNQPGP
TRKA, sequence (P04629 510-781 limits assumed): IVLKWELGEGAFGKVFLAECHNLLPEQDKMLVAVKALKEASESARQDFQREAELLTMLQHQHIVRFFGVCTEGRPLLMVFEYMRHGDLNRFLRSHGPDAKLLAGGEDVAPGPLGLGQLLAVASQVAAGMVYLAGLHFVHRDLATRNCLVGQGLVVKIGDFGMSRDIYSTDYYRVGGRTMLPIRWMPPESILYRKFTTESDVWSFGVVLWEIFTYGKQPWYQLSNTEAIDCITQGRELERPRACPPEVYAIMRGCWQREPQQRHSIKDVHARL

| SMILES | CLint scaled [1] [mL/min/kg] | pIC50 [2] | pIC50 [3] | CLint scaled [4] [mL/min/kg] | pIC50 [5] | Anti-inflammatory effect on prolonged inflammation (PMA induced MMP-1 or IL-8) [10] | Effect of GR antagonist RU-486 on inhibition of PMA-induced IL-8 levels [12] | TNFα-induced acute inflammation [13] | also measured |
| --- | --- | --- | --- | --- | --- | --- | --- | --- | --- |
| C[C@@H](Cc1c(F)c(F)cc(F)c1F)Nc1cc[nH]c(=O)c1-c1nc2cc3c(cc2[nH]1)CN(CCN(C)C)C3=O | 82.2 | 6.99 | < 5.52 | < 5.8 | 8.40 | – | – | – | – |
| C[C@@H](Cc1c(F)c(F)cc(F)c1F)Nc1cc[nH]c(=O)c1-c1nc2cc3c(cc2[nH]1)C(=O)N(C1CCN(C)CC1)C3 | < 5.8 | 7.03 | 5.93 | < 5.8 | 8.22 | – | – | – | pIC50 [6]: 9.52; pIC50 [7]: 7.00; pIC50 [8]: 8.30; pIC50 [9]: 8.00 |
| COC(=O)[C@@]1(O)C[C@H]2O[C@]1(C)n1c3ccccc3c3c4c(c5c6ccccc6n2c5c31)C(=O)NC4 [K252a, reference compound] | – | – | – | – | – | demonstrated anti-inflammatory activity which was not reversible by GR antagonist | – | – | – |
| C[C@@H](Cc1cccs1)Nc1cc[nH]c(=O)c1-c1nc2cc3c(cc2[nH]1)C(=O)N(CCCN1CCCC1)C3 [compound (V)] | – | – | – | – | – | – | – | – | Inhibition of ALCL / ALK+ T-cell lymphoma cell line proliferation [11]: potent and highly selective inhibitor of ALCL cell lines |
| C[C@@H](Cc1cc(F)cc(F)c1F)Nc1cc[nH]c(=O)c1-c1nc2cc3c(cc2[nH]1)CN(CCN(C)C)C3=O [compound (VI)] | – | – | – | – | – | anti-inflammatory activity was observed; also recorded: demonstrated anti-inflammatory activity which was not reversible by GR antagonist | not affected or possibly were more potent | partially reversible | NGF-stimulated neurite outgrowth [14]: inhibited the neurite outgrowth; Concentration required for complete inhibition of PMA induced MMP-1 production [15]: ~1 µM; Effect of combination with Dex on PMA-induced inflammation (MMP-1 expression) [16]: additive anti-inflammatory effects; PC-12 cell cytotoxicity [17]: lack of PC-12 cell cytotoxicity; Activation of GR pathway (FKBP51 marker) [18]: did not active the GR pathway |
| C[C@@H]1C[C@H]2[C@@H]3CCC4=CC(=O)C=C[C@]4(C)[C@@]3(F)[C@@H](O)C[C@]2(C)[C@@]1(O)C(=O)CO [dexamethasone, reference compound] | – | – | – | – | – | – | reversible by GR antagonist RU-486 | partially reversible | Inhibition of PMA induced MMP-1 production [15]: potently inhibit PMA induced MMP-1 production in the nM range |
